Assay results as given in patent US20060258685A1, “Substituted pyrazolopyrimidines, methods for the production thereof, use of the same for controlling pathogenic fungi, and agents containing said compounds” (priority 2003, published 2006).

Tested on: Sphaerotheca fuliginea
Assay: Activity against mildew on cucumber leaves caused by Sphaerotheca fuliginea, protective application
Format: in vivo
Settings: 250 ppm active compound, sprayed to runoff, cucumber seedlings, assessed after 7 days, untreated plants 90% infected
Experimental: The active compounds were separately prepared as a stock solution of 0.25% by weight of active compound in acetone or DMSO. 1% by weight of emulsifier Uniperol® EL (wetting agent having emulsifying and dispersing action based on ethoxylated alkylphenols) was added to this solution, and the solution was diluted with water to the desired concentration. Leaves of potted cucumber seedlings of the cultivar “Chinese snake” were, at the cotyledon stage, sprayed to runoff point with an aqueous suspension having the concentration of active compound stated below. 20 hours after the spray coating had dried on, the plants were inoculated with an aqueous spore suspension of mildew of cucumber (Sphaerotheca fuliginea). The plants were then cultivated in a greenhouse at temperatures between 20 and 24° C. and 60 to 80% relative atmospheric humidity for 7 days. The extent of the mildew development was then determined visually in % infection of the cotyledon area.

## CC1CCN(c2c(-c3c(F)cc(F)cc3F)c(Cl)nc3c(Cl)cnn23)CC1 [III-1, 3,5-Dichloro-7-(4-methylpiperidin-1-yl)-6-(2,4,6-trifluorophenyl)-pyrazolo[1,5-a]pyrimidine]
  extent of the mildew development, determined visually in % infection of the cotyledon area: no infection
